PubChem BioAssay (NCI)
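Interpolation was linear, between the two tested concentrations surrounding the appropriate level; five concentrations were tested over 48 hours in 96-well plates. The concentration for full growth arrest is given as TGI.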

How the values were obtained:
Assay in all cases: growth of human tumour cells (NCI), 48 h
RXF 393 renal = tested on: RXF 393 renal
LOX IMVI melanoma = tested on: LOX IMVI melanoma
SF-295 CNS = tested on: SF-295 CNS
HL-60(TB) leukemia = tested on: HL-60(TB) leukemia
MDA-MB-231 breast = tested on: MDA-MB-231 breast
MOLT-4 leukemia = tested on: MOLT-4 leukemia
COLO 205 colon = tested on: COLO 205 colon
NCI-H522 lung = tested on: NCI-H522 lung
OVCAR-8 ovarian = tested on: OVCAR-8 ovarian
SK-MEL-5 melanoma = tested on: SK-MEL-5 melanoma

O=c1c2ncn(C3CCCCO3)c2n(-c2ccccc2)c(=S)n1-c1ccccc1 (centres undefined)
TGI (RXF 393 renal): 25.4 µM
TGI (LOX IMVI melanoma): > 100 µM
TGI (SF-295 CNS): 51.7 µM
TGI (HL-60(TB) leukemia): > 100 µM
TGI (MDA-MB-231 breast): 73.5 µM
TGI (MOLT-4 leukemia): > 100 µM
TGI (COLO 205 colon): > 100 µM
TGI (NCI-H522 lung): > 86.7 µM
TGI (OVCAR-8 ovarian): > 100 µM
TGI (SK-MEL-5 melanoma): > 100 µM

O=c1[nH]nc(-c2ccc([N+](=O)[O-])cc2)n1/N=C/c1ccc([N+](=O)[O-])cc1
TGI (RXF 393 renal): > 100 µM
TGI (LOX IMVI melanoma): 34.4 µM
TGI (SF-295 CNS): > 100 µM
TGI (HL-60(TB) leukemia): > 100 µM
TGI (MDA-MB-231 breast): > 100 µM
TGI (MOLT-4 leukemia): > 100 µM
TGI (COLO 205 colon): > 100 µM
TGI (NCI-H522 lung): > 100 µM
TGI (OVCAR-8 ovarian): > 100 µM
TGI (SK-MEL-5 melanoma): > 100 µM

CCOP(=O)(CC1CC(O)(CNc2cc(Cl)nc(N)n2)C1)OCC (centres undefined)
TGI (RXF 393 renal): > 100 µM
TGI (LOX IMVI melanoma): > 100 µM
TGI (SF-295 CNS): > 100 µM
TGI (HL-60(TB) leukemia): > 100 µM
TGI (MDA-MB-231 breast): > 100 µM
TGI (MOLT-4 leukemia): > 100 µM
TGI (COLO 205 colon): > 100 µM
TGI (NCI-H522 lung): > 100 µM
TGI (OVCAR-8 ovarian): > 100 µM
TGI (SK-MEL-5 melanoma): > 100 µM

COc1ccc(-c2cc(C3CC3)nc(SCC(=O)O)c2C#N)cc1
TGI (RXF 393 renal): > 100 µM
TGI (LOX IMVI melanoma): > 100 µM
TGI (SF-295 CNS): > 100 µM
TGI (HL-60(TB) leukemia): > 100 µM
TGI (MDA-MB-231 breast): > 100 µM
TGI (MOLT-4 leukemia): > 100 µM
TGI (COLO 205 colon): > 100 µM
TGI (NCI-H522 lung): 71.6 µM
TGI (OVCAR-8 ovarian): > 100 µM
TGI (SK-MEL-5 melanoma): > 100 µM

CCCN=C1Nc2ccccc2[C@@H]2N(C)c3ccccc3C(C)C[C@]12C (some centres undefined)
TGI (RXF 393 renal): 37.2 µM
TGI (LOX IMVI melanoma): 27.7 µM
TGI (SF-295 CNS): 30.9 µM
TGI (HL-60(TB) leukemia): 56.1 µM
TGI (MDA-MB-231 breast): 29.8 µM
TGI (MOLT-4 leukemia): 45.7 µM
TGI (COLO 205 colon): 38 µM
TGI (NCI-H522 lung): 39.8 µM
TGI (OVCAR-8 ovarian): 28.9 µM
TGI (SK-MEL-5 melanoma): 29.2 µM

N#Cc1nc(C(F)(F)F)oc1N
TGI (RXF 393 renal): > 100 µM
TGI (LOX IMVI melanoma): > 100 µM
TGI (SF-295 CNS): > 100 µM
TGI (HL-60(TB) leukemia): > 100 µM
TGI (MDA-MB-231 breast): > 100 µM
TGI (MOLT-4 leukemia): > 100 µM
TGI (COLO 205 colon): > 100 µM
TGI (NCI-H522 lung): > 100 µM
TGI (OVCAR-8 ovarian): > 100 µM
TGI (SK-MEL-5 melanoma): > 100 µM

Cc1ccc(S(=O)(=O)Nc2nc3ccccc3c(=O)n2C2CCCCC2)cc1
TGI (RXF 393 renal): > 100 µM
TGI (LOX IMVI melanoma): > 100 µM
TGI (SF-295 CNS): > 100 µM
TGI (HL-60(TB) leukemia): > 100 µM
TGI (MDA-MB-231 breast): > 100 µM
TGI (MOLT-4 leukemia): > 100 µM
TGI (COLO 205 colon): > 100 µM
TGI (NCI-H522 lung): > 100 µM
TGI (OVCAR-8 ovarian): > 100 µM
TGI (SK-MEL-5 melanoma): > 100 µM

Nc1nc2cc(CNc3ccc(C(=O)O)cc3)ccc2nc1-c1ccccc1
TGI (RXF 393 renal): > 100 µM
TGI (LOX IMVI melanoma): > 100 µM
TGI (SF-295 CNS): > 100 µM
TGI (HL-60(TB) leukemia): > 100 µM
TGI (MDA-MB-231 breast): > 100 µM
TGI (MOLT-4 leukemia): > 100 µM
TGI (COLO 205 colon): > 100 µM
TGI (NCI-H522 lung): > 100 µM
TGI (OVCAR-8 ovarian): > 100 µM
TGI (SK-MEL-5 melanoma): > 100 µM

NNC(=O)Cc1cccnc1
TGI (RXF 393 renal): > 100 µM
TGI (LOX IMVI melanoma): > 100 µM
TGI (SF-295 CNS): > 100 µM
TGI (HL-60(TB) leukemia): > 100 µM
TGI (MDA-MB-231 breast): > 100 µM
TGI (MOLT-4 leukemia): > 100 µM
TGI (COLO 205 colon): > 100 µM
TGI (NCI-H522 lung): > 100 µM
TGI (OVCAR-8 ovarian): > 100 µM
TGI (SK-MEL-5 melanoma): > 100 µM

NC(CCl)=NC1CN2CCC1CC2 (centres undefined)
TGI (RXF 393 renal): > 100 µM
TGI (LOX IMVI melanoma): > 100 µM
TGI (SF-295 CNS): > 100 µM
TGI (HL-60(TB) leukemia): > 100 µM
TGI (MDA-MB-231 breast): > 100 µM
TGI (MOLT-4 leukemia): > 100 µM
TGI (COLO 205 colon): 73.8 µM
TGI (NCI-H522 lung): 58 µM
TGI (OVCAR-8 ovarian): > 100 µM
TGI (SK-MEL-5 melanoma): > 100 µM

O=C1CSC(c2cccc(Cl)c2)N1c1c(O)c(Cl)cc(Br)c1Cl (centres undefined)
TGI (RXF 393 renal): 35.7 µM
TGI (LOX IMVI melanoma): 29.8 µM
TGI (SF-295 CNS): > 100 µM
TGI (HL-60(TB) leukemia): 51.8 µM
TGI (MDA-MB-231 breast): 27.5 µM
TGI (MOLT-4 leukemia): 57.9 µM
TGI (COLO 205 colon): 61.2 µM
TGI (SK-MEL-5 melanoma): > 100 µM

CCOC(O)C(F)(F)F (centres undefined)
TGI (RXF 393 renal): > 100 µM
TGI (LOX IMVI melanoma): > 100 µM
TGI (SF-295 CNS): > 100 µM
TGI (HL-60(TB) leukemia): > 100 µM
TGI (MDA-MB-231 breast): > 100 µM
TGI (MOLT-4 leukemia): > 100 µM
TGI (COLO 205 colon): > 100 µM
TGI (OVCAR-8 ovarian): > 100 µM
TGI (SK-MEL-5 melanoma): > 100 µM

COc1cc(CCNC2=CC(=O)c3cccnc3C2=O)ccc1O
TGI (RXF 393 renal): 4.07 µM
TGI (LOX IMVI melanoma): 1.41 µM
TGI (SF-295 CNS): 2.6 µM
TGI (HL-60(TB) leukemia): 9.43 µM
TGI (MDA-MB-231 breast): 2.08 µM
TGI (MOLT-4 leukemia): 18.2 µM
TGI (COLO 205 colon): 3 µM
TGI (NCI-H522 lung): 2.26 µM
TGI (OVCAR-8 ovarian): 12 µM
TGI (SK-MEL-5 melanoma): 1.08 µM

N#CN=C1c2ccccc2C(=NC#N)c2cc(CO)ccc21
TGI (RXF 393 renal): 81.5 µM
TGI (LOX IMVI melanoma): > 100 µM
TGI (SF-295 CNS): > 100 µM
TGI (HL-60(TB) leukemia): 60.7 µM
TGI (MDA-MB-231 breast): > 100 µM
TGI (MOLT-4 leukemia): 59 µM
TGI (NCI-H522 lung): > 100 µM
TGI (OVCAR-8 ovarian): > 100 µM
TGI (SK-MEL-5 melanoma): > 100 µM

N#Cc1ccc(OC(=O)c2ccc(N=C(N)N)cc2)cc1
TGI (RXF 393 renal): > 100 µM
TGI (LOX IMVI melanoma): > 100 µM
TGI (SF-295 CNS): > 100 µM
TGI (HL-60(TB) leukemia): > 100 µM
TGI (MDA-MB-231 breast): > 100 µM
TGI (MOLT-4 leukemia): > 100 µM
TGI (COLO 205 colon): > 100 µM
TGI (NCI-H522 lung): > 100 µM
TGI (OVCAR-8 ovarian): > 100 µM
TGI (SK-MEL-5 melanoma): > 100 µM

OCc1c2c(cc3c1CC1(C3)Cc3cc4c(c(CO)c3C1)CCC4)CCC2
TGI (RXF 393 renal): 32.7 µM
TGI (LOX IMVI melanoma): 28.7 µM
TGI (SF-295 CNS): 26.9 µM
TGI (HL-60(TB) leukemia): 18.4 µM
TGI (MDA-MB-231 breast): 32.1 µM
TGI (MOLT-4 leukemia): 28.3 µM
TGI (COLO 205 colon): 42.4 µM
TGI (NCI-H522 lung): 28.5 µM
TGI (OVCAR-8 ovarian): 38 µM
TGI (SK-MEL-5 melanoma): 17.9 µM

[N-]=[N+]=C(C(=O)OCC#CCOC(=O)C(=[N+]=[N-])S(=O)(=O)c1ccccc1)S(=O)(=O)c1ccccc1
TGI (RXF 393 renal): > 10 µM
TGI (LOX IMVI melanoma): > 10 µM
TGI (SF-295 CNS): > 10 µM
TGI (HL-60(TB) leukemia): > 10 µM
TGI (MDA-MB-231 breast): > 10 µM
TGI (MOLT-4 leukemia): > 10 µM
TGI (COLO 205 colon): > 10 µM
TGI (NCI-H522 lung): > 10 µM
TGI (OVCAR-8 ovarian): > 10 µM
TGI (SK-MEL-5 melanoma): > 10 µM

C=C(C)[C@@H]1CC[C@]2(CO)CC[C@]3(C)[C@H](CC[C@@H]4[C@@]5(C)CC[C@H](O)C(C)(C)[C@@H]5CC[C@]43C)[C@@H]12
TGI (RXF 393 renal): 25.9 µM
TGI (LOX IMVI melanoma): 28.4 µM
TGI (SF-295 CNS): 27.8 µM
TGI (HL-60(TB) leukemia): > 100 µM
TGI (MDA-MB-231 breast): > 100 µM
TGI (MOLT-4 leukemia): > 100 µM
TGI (NCI-H522 lung): 64.9 µM
TGI (OVCAR-8 ovarian): 60.1 µM
TGI (SK-MEL-5 melanoma): 57.9 µM

COc1ccc(C[C@H]2NC(=O)/C=C/C[C@@H]([C@H](C)[C@H]3O[C@@H]3c3ccccc3)OC(=O)[C@H](CC(C)C)OC(=O)[C@H](C)CNC2=O)cc1
TGI (RXF 393 renal): > 3.12e-05 µM
TGI (LOX IMVI melanoma): > 0.0001 µM
TGI (SF-295 CNS): > 6.84e-05 µM
TGI (HL-60(TB) leukemia): 5.2e-05 µM
TGI (MDA-MB-231 breast): > 8.79e-05 µM
TGI (MOLT-4 leukemia): > 0.0001 µM
TGI (COLO 205 colon): 4.99e-05 µM
TGI (NCI-H522 lung): > 0.0001 µM
TGI (OVCAR-8 ovarian): 5.55e-05 µM
TGI (SK-MEL-5 melanoma): 7.06e-05 µM

O=C(O)CS(=O)c1ccc2c3c(cccc13)C(=O)c1ccccc1-2 (centres undefined)
TGI (RXF 393 renal): > 100 µM
TGI (LOX IMVI melanoma): > 100 µM
TGI (SF-295 CNS): > 100 µM
TGI (HL-60(TB) leukemia): > 100 µM
TGI (MDA-MB-231 breast): > 100 µM
TGI (COLO 205 colon): > 100 µM
TGI (NCI-H522 lung): > 100 µM
TGI (OVCAR-8 ovarian): > 100 µM
TGI (SK-MEL-5 melanoma): > 100 µM
